Here are results for two molecules from patent publication US20220133747A1, “ESTROGEN RECEPTOR INHIBITORS AND USES THEROF” (The Regents of the University of California, priority 2018, published 2022).

Assay [1] concerns myeloid-derived suppressor cells (MDSC). The assay can be described thus: Expansion of human MDSC from bone marrow of BC patients, flow cytometry. It is filed as cell-based. As to conditions: 1 μM in normal medium with GM-CSF and IL-6, 5-6 days. An excerpt:
Bone Marrow cells from three breast cancer patients were purified by established methods including red blood cell lysis and Ficoll gradients (1-3,5, 5-7) and then cultured in the presence of IL-6 and GM-CSF in either estrogen-free medium (EFM), normal medium with control vehicle (NM) (which contains estrogens), normal medium with 1-μM fulvestrant (NM+FULV) or normal medium with 1-μM S128 (NM+S128). After 5 days, myeloid-derived cell populations were then identified by following the gating strategy of Ruffell et al. (2) as modified by Svoronos et al. (1). A) Percentage of total MDSC within CD45^+ population.
Total number of human MDSC derived from bone marrow (BM) of three of three BC patients (P<0.05). Cells were incubated in the presence of GM-CSF and IL-6 for 6 days in either regular RPMI medium+15% FBS (NM) (contains estrogens) or in phenol red-free medium with 15% charcoal coated-dextran treated FBS (EFM)(estrogen-depleted) with or without the addition of 100 nM estradiol-17β (EFM+E2). Normal cell culture medium (NM) drives E2-dependent signaling due to the presence of various estrogens in FBS as well as the estrogenic properties of phenol red. These effects were inhibited by the SERDs fulvestrant (FULV) and S128 at 1 μM
FIGS. 22A-22B show expansion of MDSCs is dependent on estrogen signaling and reversed by antiestrogens. […]
Human myeloid-derived suppressor cells were expanded from bone marrow (BM) specimens of BC patients after standard Ficoll gradient purification and red blood cell lysis. […] After 6 days of culture, cells were harvested, stained with a 14 antibody panel including anti-phospho-STAT3 (pSTAT3) and analyzed by flow cytometry with an LSRII with a 5 lasers (UV, violet, blue, green-yellow and red). […]
In general terms: In flow cytometry, cells or beads pass a laser one at a time.

Assay [2] is described as follows: Screen of SERD candidates in antitumor assays, comparison with fulvestrant. The conditions noted are these: a number of antitumor assays. The text has this:
We designed, synthesized and screened more than 65 new SERD candidates, all of which have the general structure shown in 1′, namely 11β-aryloxy estradiols, with a basic amine positioned at the 4-position of the aryl ring (FIG. 16). The basic amine is connected to the aryl unit either directly or via a spacer that varies from 3-6 atoms. […] We note that this new class of steroid-like SERDs lack the prototypical side chain (as in fulvestrant) widely used to design other drugs with ERα antagonism, but these SERD candidates generate a full antagonist profile and induce significant ERα down-regulation, likely similar to significant ‘indirect’ receptor antagonism as reported in previous independent studies of 11β-substitutions in ERα [51, 52] and other structural changes as in an independent report.

Another assay relates to MCF-7/TMR cells. Description: Cell proliferation assay, MCF-7 with tamoxifen resistance. It is filed as cell-based, human. The conditions noted are these: 10 nM with 2 nM estradiol-17β, 48 hr.
In assay [3] the test system is ER-dependent transcription. Description: ERE-luciferase T47D reporter, ER-dependent transcriptional activity. It is filed as cell-based, human. The conditions noted are these: T47D ERE-luciferase, 10 nM with 2 nM 17β-estradiol. The procedure:
FIGS. 20A-20C show biologic activity of selected SERD candidates. […] ER-positive MCF-7 cells were treated in phenol-red free RPMI 1640 without FBS and containing vehicle control (CON) or 100 nM concentrations of either fulvestrant (FX) or antiestrogens 105, 109, 121, 140, 151, 160 or SERD128 in vitro. After 4 hours, cells were harvested and processed for PAGE and Western immunoblots using ERα antibody (1D5, Thermofisher Scientific). RPL13A was used as a loading control. […] Cells were dosed with either E2 alone or with SERDs combined with E2 in phenol redfree medium with 0.1% dextran-coated charcoal-treated FBS in luminometer plates. Data are presented as relative light units (RLU) relative to that of E2 alone in three replicate assays (4 wells per replicate) f SEM. Treatment with E2 alone induced a 12-fold induction of ER-dependent luciferase activity quantified as RLU relative to vehicle control-treated samples.
A stable ER-positive T47D ERE luciferase reporter cell line, in which the ERE and the reporter luciferase gene are consistently expressed in the cell line were used in this study (Signosis). […] Lysate was mixed 1:1 with luciferase substrate (Promega), and luminescence was measured using a MLX microtiter plate luminometer (Dynex) and quantified as relative light units (RLU) according to established procedures. Total protein was quantified using BioRad Protein Assay (BioRad).

Structures are written as SMILES. “Also recorded” adds a separate entry of the source.

As for `C[C@]12CC[C@@H]3c4ccc(O)cc4C[C@@H](CCCCCCCCC[S+]([O-])CCCC(F)(F)C(F)(F)F)[C@H]3[C@@H]1CC[C@@H]2O` (stereo partly drawn) [fulvestrant, reference compound], the “total MDSC numbers (expansion of MDSC)” value in assay [1] is reported as “substantially decreased; also recorded: significantly inhibited; also recorded: block E2-induced expansion of MDSCs”.

Take `C[C@]12C[C@H](Oc3ccc(N)c(C(F)(F)F)c3)[C@@H]3c4ccc(O)cc4CC[C@H]3[C@@H]1CC[C@@H]2O` [SERD128, (8S,9S,11S,13S,14S,17S)-11-(4-Amino-3-(trifluoromethyl)phenoxy)-13-methyl-7,8,9,11,12,13,14,15,16,17-decahydro-6H-cyclopenta[a]phenanthrene-3,17-diol]: the “activity relative to fulvestrant” value in assay [2] was “more potent than fulvestrant”. Further, the “cell proliferation (% of estradiol-treated controls)” value with MCF-7/TMR cells is reported as “significantly blocked proliferation; also recorded: antiproliferative action”. The “total MDSC numbers (expansion of MDSC)” value was “significantly inhibited; also recorded: inhibits expansion and activation; also recorded: block E2-induced expansion of MDSCs; also recorded: exceeds that of fulvestrant at equivalent doses” in assay [1]; “substantially decreased; also recorded: inhibited; also recorded: inhibits E2-induced expansion of MDSC” in assay [1] (listed as S128). In addition, in assay [3], the “ER-dependent luciferase activity (RLU relative to E2 alone)” value was “comparable to that of the pure antiestrogen fulvestrant”.
